Test results taken from patent publication US20040171566A1, “Antisense modulation of p38 mitogen activated protein kinase expression” (priority 1999, published 2004).
In the oligonucleotide strings, read from the 5' end, every base follows the letter of its sugar. An asterisk marks phosphorothioate; unmarked linkages are phosphodiester. Other units and linkages are bracketed, terminal groups are in braces. A string of capitals states the bases alone. e = 2'-O-(2-methoxyethyl) (MOE); [5mC] = 5-methylcytosine; d = 2'-deoxy (DNA)

Key:
mouse p38α mRNA [1] = test: Inhibition of mouse p38α mRNA expression in bEND.3 cells, Northern blot; type: cell-based
Protocol: (§1) bEND.3, a mouse endothelial cell line (gift of Dr. Werner Risau; see Montesano et al., Cell, 1990, 62, 435, and Stepkowski et al., J. Immunol., 1994, 153, 5336) were grown in high-glucose DMEM (Life Technologies, Gaithersburg, Md.) medium containing 10% fetal bovine serum (FBS) and 1% Penicillin/Streptomycinin. Cells were plated at approximately 2×10^5 cells per 100 mm dish. Within 48 hours of plating, the cells were washed with phosphate-buffered saline (Life Technologies). Then, Opti-MEM7 medium containing 3 μg/mL LIPOFECTIN^7 and an appropriate amount of oligonucleotide were added to the cells. As a control, cells were treated with LIPOFECTIN^7 without oligonucleotide under the same conditions and for the same times as the oligonucleotide-treated samples.
(§2) After 4 hours at 37° C., the medium was replaced with high glucose DMEM medium containing 10% FBS and 1% Penicillin/Streptomycinin. The cells were typically allowed to recover overnight (about 18 to 24 hours) before RNA and/or protein assays were performed as described in Example 2. The p38α, p38β and G3PDH probes used were identical to those described in Example 2.
(§3) Rat p38α antisense oligonucleotides were screened in bEND.3 cells for inhibition of p38α and p38β mRNA expression. The concentration of oligonucleotide used was 100 nM. Oligonucleotides 21844 (SEQ ID NO. 47), 21845 (SEQ ID NO. 48), 21872 (SEQ ID NO. 51), 21873 (SEQ ID NO. 52), 21875 (SEQ ID NO. 54), and 21876 (SEQ ID NO.
(§4) Mouse p38β antisense sequences were screened in bEND.3 cells as described in Example 4.

mouse p38β mRNA = test: Inhibition of mouse p38β mRNA expression in bEND.3 cells, Northern blot; type: cell-based
Protocol: as §1, §2, §3, §4

rat p38α mRNA [2] = test: Inhibition of rat p38α mRNA expression in A-10 cells, Northern blot; type: cell-based; settings: Rat A-10 cells, 200 nM oligonucleotide, 24 hours
Protocol: Rat p38α antisense oligonucleotides were screened in Rat A-10 cells. A-10 cells (American Type Culture Collection, Manassas, Va.) were grown in high-glucose DMEM (Life Technologies, Gaithersburg, Md.) medium containing 10% fetal calf serum (FCS). Cells were treated with oligonucleotide as described in Example 2. Oligonucleotide concentration was 200 nM. mRNA was isolated 24 hours after time zero and quantitated by Northern blot as described in Example 2.

human p38β mRNA = test: Human p38β mRNA expression in T-24 cells; settings: initial screen of human p38α oligonucleotides
human p38α mRNA = test: Human p38α mRNA expression in T-24 cells; settings: initial screen of human p38α oligonucleotides
rat p38α mRNA [3] = test: Rat p38α mRNA levels in NR-8383 cells, quantitative real-time PCR; type: cell-based; settings: 300 nM oligonucleotide with FuGENE 6, 24 hours, mRNA by quantitative real-time PCR, average of two experiments
mouse p38α mRNA [4] = test: Mouse p38α mRNA levels in bEND.3 cells, quantitative real-time PCR; type: cell-based; parameters: % Inhib. mouse p38α: concentration or dose not given beside the values; settings: bEND.3 cells, mRNA by quantitative real-time PCR, average of two experiments
Procedure, shortened: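 Mouse bEND.3 cells, antisense oligonucleotide-treated; p38α mRNA measured by one-step real-time RT-PCR (RT 30 min at 48 °C, then 40 cycles) with a FAM/TAMRA probe. Levels normalized to GAPDH or RiboGreen total RNA, and percent inhibition derived from standard curves of untreated-control mRNA.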

[5] = mouse p38β antisense oligonucleotides, screened as in Example 4
[6] = 100 nM rat p38α antisense oligonucleotide

Substance: GoCoAoGoAsCsTsGsAsGsCsCsGsTsAsGoGoCoGoC (antisense eGe[5mC]eAeGeA*d[5mC]*dT*dG*dA*dG*d[5mC]*d[5mC]*dG*dT*dA*eGeGe[5mC]eGe[5mC]) [ISIS 100803]
- % p38α mRNA INHIBITION (mouse p38α mRNA [1]; [5]): 18%

Substance: AoGoGoCoTsAsGsAsGsCsCsCsAsGsGsAoGoCoCoA (antisense eAeGeGe[5mC]eT*dA*dG*dA*dG*d[5mC]*d[5mC]*d[5mC]*dA*dG*dG*eAeGe[5mC]e[5mC]eA) [ISIS 21876]
- % p38β mRNA Inhibition (mouse p38β mRNA; [6]): minimal effects
- % p38α mRNA EXPRESSION (rat p38α mRNA [2]): 61%
- % p38α mRNA INHIBITION (rat p38α mRNA [2]): 39%

Substance: TCCAACAGACCAATCACATT (phosphorothioate gapmer, further chemistry not given here) [ISIS 100864]
- % P38β mRNA EXPRESSION (human p38β mRNA): 70%
- % P38α mRNA EXPRESSION (human p38α mRNA): 66%
- % Inhib. rat p38α (rat p38α mRNA [3]): 57%
- % Inhib. mouse p38α (mouse p38α mRNA [4]): 83%

Substance: AoToGoGoAsTsGsTsGsGsCsCsGsGsCsGoToGoAoA (antisense eAeTeGeGeA*dT*dG*dT*dG*dG*d[5mC]*d[5mC]*dG*dG*d[5mC]*eGeTeGeAeA) [ISIS 100806]
- % p38β mRNA Inhibition (mouse p38β mRNA; [5]): 22%
- % p38α mRNA INHIBITION (mouse p38α mRNA [1]; [5]): 3%

Substance: GoGoCoAoCsAsAsAsGsCsTsAsAsTsGsAoCoToToC (antisense eGeGe[5mC]eAe[5mC]*dA*dA*dA*dG*d[5mC]*dT*dA*dA*dT*dG*eAe[5mC]eTeTe[5mC]) [ISIS 21872]
- % p38β mRNA Inhibition (mouse p38β mRNA; dose 100 nM (dose response)): 1%
- % p38α mRNA EXPRESSION (rat p38α mRNA [2]): 13%
- % p38α mRNA INHIBITION (mouse p38α mRNA [1]; dose 25 nM): 35%
- % p38α mRNA INHIBITION (mouse p38α mRNA [1]; dose 100 nM (dose response)): 76%

Substance: GoGoAoToGsGsAsCsAsGsAsAsCsAsGsAoAoGoCoA (antisense eGeGeAeTeG*dG*dA*d[5mC]*dA*dG*dA*dA*d[5mC]*dA*dG*eAeAeGe[5mC]eA) [ISIS 21874]
- % p38β mRNA Inhibition (mouse p38β mRNA; [6]): 21%
- % p38α mRNA EXPRESSION (rat p38α mRNA [2]): 22%
- % p38α mRNA INHIBITION (mouse p38α mRNA [1]; [6]): 38%

Substance: AoToCoCoTsCsAsGsCsTsCsGsCsAsGsToCoCoToC (antisense eAeTe[5mC]e[5mC]eT*d[5mC]*dA*dG*d[5mC]*dT*d[5mC]*dG*d[5mC]*dA*dG*eTe[5mC]e[5mC]eTe[5mC]) [ISIS 100809]
- % p38α mRNA INHIBITION (mouse p38α mRNA [1]; [5]): 14%

Substance: GoAoGoCoAsGsGsCsAsGsAsCsTsGsCsCoAoAoGoG (antisense eGeAeGe[5mC]eA*dG*dG*d[5mC]*dA*dG*dA*d[5mC]*dT*dG*d[5mC]*e[5mC]eAeAeGeG) [ISIS 21875]
- % p38β mRNA Inhibition (mouse p38β mRNA; [6]): minimal effects
- % p38β mRNA Inhibition (mouse p38β mRNA; dose 1 nM): 11%
- % p38β mRNA Inhibition (mouse p38β mRNA; dose 5 nM): 16%
- % p38β mRNA Inhibition (mouse p38β mRNA; dose 25 nM): 2%
- % p38β mRNA Inhibition (mouse p38β mRNA; dose 100 nM (dose response)): 4%
- % p38α mRNA EXPRESSION (rat p38α mRNA [2]): 26%
- % p38α mRNA INHIBITION (mouse p38α mRNA [1]; dose 25 nM): 33%
- % p38α mRNA INHIBITION (mouse p38α mRNA [1]; dose 100 nM (dose response)): 72%
